Entries after “also recorded” stand apart in the source; their conditions may differ.
How the values were obtained:
SW620 colon cancer cells = assay: Adhesion assay of SW620 cells to collagen I at ambient or 15 mmHg increased pressure (ZINC compounds); assay type: cell-based, human; settings: 30 minutes; for Concentration at which pressure stimulated adhesion was blocked / Pressure stimulated adhesion: 15 mmHg; for Pressure stimulated adhesion / Basal adhesion: concentrations studied 10-200 μM (per compound in Table 3); for Basal adhesion: ambient pressure
Protocol: (§1) Extracellular pressure was increased by 15 mmHg over ambient pressure using a temperature and pressure-controlled box as described by Basson et al. (J Cell Biochem, 78: 47-61 (2000)).
Cells were seeded in an amount of 50,000 cells/well into 24 well plates precoated with collagen I (Sigma, St. Louis, Mo., USA) at 37° C. under ambient or 15 mmHg increased pressure as described by Basson et al. J Cell Biochem 78: 47-61 (2000)). After 30 minutes, non-adherent cells were washed away. Adherent cells were stained with MTS (CellTiter 96® AQueous One Solution Cell Proliferation Assay, Madison, Wis., USA) and plates were read at 490 nm.
Seven molecules were studied that structurally mimic AAHPSEE (SEQ ID NO:24), including five analogs of ZINC04085549 (FIG. 16A-16G). These molecules' effects on basal and pressure-stimulated human SW620 colon cancer cell adhesion to collagen I were assayed first. Most molecules had no effect at the concentrations studied (Table 3).

Akt1 = Akt1 (Homo sapiens, UniProt P31749); settings: Zeng et al., Oncotarget 2017; cited from earlier work
Sequence of Akt1 (P31749 whole entry, species assumed): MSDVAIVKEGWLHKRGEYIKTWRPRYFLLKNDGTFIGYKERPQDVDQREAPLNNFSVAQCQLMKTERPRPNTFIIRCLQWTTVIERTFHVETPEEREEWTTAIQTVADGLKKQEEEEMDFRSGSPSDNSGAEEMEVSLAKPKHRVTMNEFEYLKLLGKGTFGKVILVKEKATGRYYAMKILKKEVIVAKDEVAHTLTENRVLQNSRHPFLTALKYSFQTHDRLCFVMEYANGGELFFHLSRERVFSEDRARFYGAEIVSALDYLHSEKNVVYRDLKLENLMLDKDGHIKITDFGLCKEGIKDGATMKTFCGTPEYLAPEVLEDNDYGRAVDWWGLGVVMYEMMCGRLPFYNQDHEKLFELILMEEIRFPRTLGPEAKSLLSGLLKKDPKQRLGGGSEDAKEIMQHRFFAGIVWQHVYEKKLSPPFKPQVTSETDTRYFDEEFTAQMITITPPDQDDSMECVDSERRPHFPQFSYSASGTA

[1] = tested on: FAK-Tyr-397 phosphorylation; assay: FAK-Y397 western blotting in suspended SW620 cells at ambient or 15 mmHg increased pressure (ZINC compounds); assay type: cell-based, human; settings: 50 μM
Source text: as §1
Cells were maintained at ambient or increased pressure in bacteriologic plastic dishes pacificated with heat-inactivated bovine serum albumin to prevent adhesion and avoid adhesion-associated background FAK activation. Cells were lysed in lysis buffer, resolved by 10% SDS-PAGE, transferred to nitrocellulose and blotted with antibody to Tyr-397-phosphorylated FAK (rabbit monoclonal ab81298, Abcam, San Francisco, Calif., USA) and anti-rabbit 680 (LI-COR Inc. Lincoln, Nebr., USA), before quantitation using Kodak Scientific Imaging Systems 1D, V.3.5.4 (Zeng et al., Oncotarget, 8 98051-98067 (2017)). Total FAK (Anti-FAK, clone 4.47 Merck, Darmstadt, Germany with secondary anti-mouse 800, LI-COR Inc. Lincoln, Nebr., USA) served as a loading control. FAK and Tyr-397-phosphorylated FAK western blots yielded doublets similar to those previously observed by others (McConnell et al. Mol Cancer 10: 75 (2011); Aflaki et al. Cell Mol Life Sci, 68: 3933-3947 (2011)); Das et al. Cancer Res, 72: 6217-6226 (2012); Ammoun et al. Oncogene, 31: 1710-1722 (2012)). Both bands were quantitated together.
Four structurally similar molecules to the FAK-derived sequence LAHPP (SEQ ID NO:25) (Table 2) were evaluated for their ability to prevent FAK activation by 15 mmHg increased extracellular pressure in human SW620 colon cancer cells. […] The structures of these compounds are shown below (and in FIG. 17).

Molecule	Concentration at which pressure stimulated adhesion was blocked (SW620 colon cancer cells)	Pressure stimulated adhesion (SW620 colon cancer cells)	Basal adhesion (SW620 colon cancer cells)	Competition with FAK for binding to AKT1 (Akt1)	Basal ambient pressure FAK-Tyr-397 phosphorylation ([1]; suspended SW620)	Pressure-stimulated FAK-Tyr-397 phosphorylation ([1]; suspended SW620, 15 mmHg)
COc1ccc(C(=O)O/N=C2\CCCCC2c2ccc([N+](=O)[O-])cc2[N+](=O)[O-])cc1 (stereo not drawn) [ZINC4085554]	≥50 µM	prevented pressure-stimulated increases in SW620 adhesion; also recorded: Blocked	without altering basal adhesiveness at ambient pressure; also recorded: Maintained			
AAHPSEE [two-site mutant of FAK residues 113-119, more helical analog used as screening query]				effectively compete with FAK for binding to AKT1		
Cc1ccccc1C(=O)O/N=C1\CCCCC1c1ccc([N+](=O)[O-])cc1[N+](=O)[O-] (stereo not drawn) [ZINC04085549]	≥50 µM	prevented pressure-stimulated increases in SW620 adhesion; also recorded: Blocked	without altering basal adhesiveness at ambient pressure; also recorded: Maintained		without affecting basal ambient pressure FAK-Tyr-397 phosphorylation	prevented pressure-stimulated FAK-Tyr-397 phosphorylation

Reference: patent US11452764B2, “Inhibiting FAK-AKT interaction to inhibit metastasis” (Board of Trustees of Michigan State University, priority 2017, dated 2022)
